Experimental data: patent US9573956B2, “Compounds as dual inhibitors of phosphodiesterases and histone deacetylases” (FUNDACIÓN PARA LA INVESTIGACIÓN MÉDICA APLICADA, priority 2013, dated 2017)

Key:
[1] = system: carboxyl terminal fragment AβPP (C99); experiment: AD-related markers in Tg2576 neurons: APP processing (C99); format: cell-based; settings: Mus musculus, Neuron, 48 h, treated two days, EC50 = 50% decrease in C99 over basal
Procedure: The effects of the compounds on amyloid pathology were analysed in primary cultures (15 DIV) of neurons derived from the hippocampus and cortex of Tg2576 mouse embryos. Tg2576 mice express the human 695-aa isoform of APP (hAPP) containing the Swedish double mutation, which favours Aβ production. Neurons were treated for two days and collected at day 3, 24 h after the last treatment. First it was analysed the effect of the compounds on hAPP processing by the amyloidogenic pathway by measuring the carboxyl terminal fragment AβPP (C99), which is the precursor of Aβ42. In this case the reported EC50, Table 2 (below), means a 50% decrease in C99 levels over basal (saline, no treatment).
To analyze APP-derived fragments and p-tau levels in primary neuronal cultures, cells were collected in a buffer containing SDS (2%), Tris-HCl (10 mM, pH 7.4), protease inhibitors (1 mM PMSF and Complete Protease Inhibitor Cocktail: Roche Diagnostics) and phosphatase inhibitors (0.1 mM Na3VO4 and 1 mM NaF). The homogenates were sonicated for 2 min and centrifuged at 100,000×g for 1 h. Aliquots of the supernatant were frozen at −80° C. and their protein concentrations determined by the Bradford method using the Bio-Rad protein assay (Bio-Rad, Hercules, Calif., USA). Aliquots of the protein extracts were mixed with XT sample buffer plus XT reducing agent (Bio-Rad, Hercules, Calif., USA) and boiled for 5 min. Proteins were separated in a Criterion precast Bis-Tris 4-12% gradient precast gel (Bio-Rad, Hercules, Calif., USA) and transferred to a PVDF membrane with a removal rating of […] (Hybond LFP, Amersham Biosciences, Little Chalfont, UK). The membranes were blocked with 5% milk, 0.05% Tween-20 in PBS or TBS, and incubated overnight with the following primary antibodies in the corresponding buffers: mouse monoclonal anti-phosphotau AT8 (Pierce Biotechnology Inc., Rockford), mouse monoclonal anti-tau (clone Tau46, Sigma-Aldrich, St Louis, Mo.), 6E10 mouse monoclonal antibody (amino acids 1-17 of Aβ peptide; Millipore), mouse monoclonal anti-β-actin, mouse monoclonal anti-α-tubulin and mouse monoclonal anti-Acetylated-tubulin (Sigma). All antibodies were used at dilutions of 1:1,000 except for the mouse monoclonal anti-β-actin, anti-Acetylated-tubulin and anti-tubulin (1:50,000). Following two washes in TBS/Tween20 and one wash in TBS alone, immunolabelled protein bands were detected using HRP-conjugated anti-rabbit or anti-mouse antibodies (diluted 1:5,000: Santa Cruz). Binding was visualised by enhanced chemiluminescence (ECL, GE Healthcare Bioscience, Buckinghamshire, UK) and autoradiographic exposure to Hyperfilm ECL (GE Healthcare Bioscience), using Quantity One™ software v.4.6.3 (Bio-Rad) for quantification.

[2] = system: pCREB; experiment: PDE activity in wild type primary neurons (Western blot pCREB); format: cell-based; settings: Mus musculus, Neuron, 0.5 h, 30 min, EC50 = 50% increase in pCREB over basal
[3] = molecular target: T1, HDAC6 (Homo sapiens, UniProt Q9UBN7); experiment: HDAC enzyme activity assay (fluorogenic substrate), HDAC6; format: biochemical; settings: recombinant enzyme; read-out: HDAC6 inhibition (IC50)
T1 construct: BC069243; Cat. #50006) is full-length with N-terminal GST tag; GST (N); purchased BPS Biosciences 50006; host or cells: baculovirus infected Sf9 cells
T1 sequence (Q9UBN7 1-1215): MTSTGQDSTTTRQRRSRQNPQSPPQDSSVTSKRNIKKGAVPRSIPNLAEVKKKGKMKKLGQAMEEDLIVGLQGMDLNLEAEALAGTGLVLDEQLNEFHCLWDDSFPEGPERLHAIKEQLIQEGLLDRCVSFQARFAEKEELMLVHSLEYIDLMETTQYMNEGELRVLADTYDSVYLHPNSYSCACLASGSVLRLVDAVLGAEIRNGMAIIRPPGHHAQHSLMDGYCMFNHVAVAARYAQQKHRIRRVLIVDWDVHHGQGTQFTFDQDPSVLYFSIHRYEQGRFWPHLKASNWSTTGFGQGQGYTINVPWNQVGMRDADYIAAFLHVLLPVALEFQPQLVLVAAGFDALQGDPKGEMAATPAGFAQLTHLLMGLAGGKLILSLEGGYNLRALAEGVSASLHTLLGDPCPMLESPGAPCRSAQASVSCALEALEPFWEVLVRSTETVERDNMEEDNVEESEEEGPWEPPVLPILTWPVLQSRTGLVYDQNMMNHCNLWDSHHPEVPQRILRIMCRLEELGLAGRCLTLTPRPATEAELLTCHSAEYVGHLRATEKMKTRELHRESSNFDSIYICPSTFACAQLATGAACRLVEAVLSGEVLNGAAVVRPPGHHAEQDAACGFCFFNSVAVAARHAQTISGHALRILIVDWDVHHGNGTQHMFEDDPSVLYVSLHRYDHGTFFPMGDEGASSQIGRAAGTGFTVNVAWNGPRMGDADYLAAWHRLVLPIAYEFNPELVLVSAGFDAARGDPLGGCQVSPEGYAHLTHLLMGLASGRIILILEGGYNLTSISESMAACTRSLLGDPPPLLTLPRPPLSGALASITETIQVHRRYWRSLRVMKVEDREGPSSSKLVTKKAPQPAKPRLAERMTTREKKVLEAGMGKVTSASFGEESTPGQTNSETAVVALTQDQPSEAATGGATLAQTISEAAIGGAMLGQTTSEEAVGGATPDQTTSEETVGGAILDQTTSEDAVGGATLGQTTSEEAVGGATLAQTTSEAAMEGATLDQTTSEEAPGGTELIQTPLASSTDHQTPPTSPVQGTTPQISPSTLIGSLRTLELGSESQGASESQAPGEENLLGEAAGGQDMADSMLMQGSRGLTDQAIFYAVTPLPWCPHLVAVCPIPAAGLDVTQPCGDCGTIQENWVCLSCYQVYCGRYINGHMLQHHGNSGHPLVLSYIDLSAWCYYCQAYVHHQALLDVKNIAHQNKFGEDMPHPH

[4] = molecular target: T2, HDAC2 (Homo sapiens, UniProt Q92769); experiment: HDAC enzyme activity assay (fluorogenic substrate), HDAC2; format: biochemical; settings: recombinant enzyme; read-out: HDAC2 inhibition (IC50)
T2 construct: NM_001527; Cat. #50002) is full-length with C-terminal his tag; His (C); purchased BPS Biosciences 50002; host or cells: baculovirus infected Sf9 cells
T2 sequence (Q92769 whole entry): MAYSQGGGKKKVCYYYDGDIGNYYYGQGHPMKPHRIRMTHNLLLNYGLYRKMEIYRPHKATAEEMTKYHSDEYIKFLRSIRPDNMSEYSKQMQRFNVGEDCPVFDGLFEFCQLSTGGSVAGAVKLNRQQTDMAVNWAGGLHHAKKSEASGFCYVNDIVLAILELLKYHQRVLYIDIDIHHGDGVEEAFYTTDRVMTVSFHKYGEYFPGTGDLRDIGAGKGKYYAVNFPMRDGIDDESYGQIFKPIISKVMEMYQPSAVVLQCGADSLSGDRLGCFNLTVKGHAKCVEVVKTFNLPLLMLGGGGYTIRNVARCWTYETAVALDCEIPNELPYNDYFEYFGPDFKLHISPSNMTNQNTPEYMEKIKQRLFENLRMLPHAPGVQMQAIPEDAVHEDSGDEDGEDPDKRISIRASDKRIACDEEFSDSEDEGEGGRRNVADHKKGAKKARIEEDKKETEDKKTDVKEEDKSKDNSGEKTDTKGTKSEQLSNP

EC50 [1] [µM] | EC50 [2] [µM] | IC50 [3] [µM] | IC50 [4] [µM] | SMILES
0.01 to 1 | 0.01 to 1 | 0.01 to 1 | 0.01 to 1 | CCCc1nn(C)c2c(=O)[nH]c(-c3cc(CC4CC(C(=O)NO)C4)ccc3OCC)nc12 (racemic) [Example 1-19, 3-[[4-ethoxy-3-(1-methyl-7-oxo-3-propyl-6H-pyrazolo[4,3-d]pyrimidin-5-yl)phenyl]methyl]cyclobutanecarbohydroxamic acid]
0.01 to 1 | 0.01 to 1 | 0.01 to 1 | 0.01 to 1 | CCCc1nn(C)c2c(=O)[nH]c(-c3cc(S(=O)(=O)N4CCN(c5ncc(C(=O)NO)cn5)CC4)ccc3OCC)nc12 [Example 1-06, 2-(4-[3-(6,7-Dihydro-1-methyl-7-oxo-3-propyl-1H-pyrazolo[4,3-d]pyrimidin-5-yl)-4-ethoxyphenylsulfonyl]piperazin-1-yl)-N-hydroxypyrimidine-5-carboxamide]
0.01 to 1 | 0.01 to 1 | 0.01 to 1 | 1 to 10 | CCCc1nn(C)c2c(=O)[nH]c(-c3cc(Cc4ccc(C(=O)NO)cc4)ccc3OCC)nc12 [Example 1-15, 4-[[4-ethoxy-3-(1-methyl-7-oxo-3-propyl-6H-pyrazolo[4,3-d]pyrimidin-5-yl)phenyl]methyl]benzenecarbohydroxamic acid]
0.01 to 1 | 0.01 to 1 | 0.01 to 1 | 1 to 10 | CCCc1nn(C)c2c(=O)[nH]c(-c3cc(Cc4ccc(C(=O)NO)s4)ccc3OCC)nc12 [Example 1-16]
